Data from patent US6949521B2, “Therapeutic azide compounds” (priority 1995, dated 2005).
Entries after “also recorded” stand apart in the source; their conditions may differ. Read-outs that look alike come from different tables or passages of the source.

Columns and labels:
HIV-1 = conditions: relative to parent compounds ddA, ddI; cited from earlier work
in vivo [1] = conditions: for AUC: AUC0-τ; for half-life: t½
From the text: Animal studies. […] Animal studies were approved by the University of Georgia Animal Care and Use Committee and conducted in accordance with guidelines established by the Animal Welfare Act and the National Institutes of Health Guide for the Care and Use of Laboratory Animals. […] Animals were acclimatized to this environment for one week prior to the experiments.
At selected time intervals, mice (three animals per each time point) were anesthetized with diethyl ether and sacrificed by exsanguination via left ventricular heart puncture. Serum was harvested from blood collected. The brain was excised, rinsed with normal saline, blotted dry and weighed.
(§1) Analytical Methodology. […] The brain or liver tissue were homogenized in a 1:1 (g:mL) ratio with ice cold isotonic 0.05 M phosphate buffer, pH 7.4. […] Acetonitrile (600 μL) containing 0.1% acetic acid was added while vortexing to precipitate proteins. The tubes were centrifuged at 3,000 rpm for five minutes and the supernatant was transferred to a clean tube. Supernatant was evaporated to dryness under a stream of nitrogen gas at room temperature. The residual film was reconstituted in 110 μL of mobile phase and 50 μL was injected onto the HPLC.
(§2) Chromatographic separations were performed using a Hypersil ODS column 150×4.5 mm, 5 μm particle size (Alltech Associates, Deerfield, Ill.) preceded by a guard column packed with 30-40 μm pellicular Perisorb RP-18. Mobile phase flow rate was 2 mL/min. For the analysis of FAAddP and 2′-F-ara-ddA, the mobile phase consisted of 7% (v/v) acetonitrile in 80 mM sodium acetate, pH 5.0. […] Eluants were monitored at a UV wavelength of 260 nm.
(§3) Nucleoside standards ranging from 0.04 μg/mL to 100 μg/mL, prepared in blank PBS, serum, brain homogenate and liver homogenate were treated the same as unknown samples. Samples with nucleoside concentrations greater than 100 μg/mL were diluted with the appropriate blank matrix.
Data analysis in vivo studies. Nucleoside concentration as a function of time data were analyzed by a non-compartmental technique. […] Relative brain exposure (re) was calculated from AUCbrain/AUCserum.

[2] = In vitro metabolism study of 6-AAP and ara-A in mouse liver homogenate, serum and brain homogenate
Protocol: (§5) All the solvents were of HPLC grade. Chromatography was performed on an Altech Hypersil ODS C18 (5 μm particle size, 4.5×150 mm, Altech Associates, Deerfield, Ill.).
(§6) In vitro metabolism study. Female NIH Swiss mice (Harland Sprague-Dawley, Indianapolis, Ind.) were sacrificed and serum, liver and brain tissues were collected before each experiment. Serum was collected from several animals. The brain and liver were washed in normal saline at 4° C., wiped and then weighed. […] Samples and blanks of volume 400 μL were collected at 0, 5, 15, and 30 minutes and at 1, 2, 3, 4 and 5 hours.
(§7) To measure the analyte concentrations in serum, liver or brain homogenate, 400 μL of sample was mixed with 50 μL of internal standard (AzdU, 5 μg/mL) and 0.7 mL of acetonitrile. After centrifugation, the supernatant was decanted to another tube and treated with anhydrous Na2SO4, then vortexed for one minute and centrifuged again. The organic layer was separated and evaporated under nitrogen stream at room temperature. The residue was reconstituted in mobile phase A and filtered through MPS-I micropartition system (3KD membranes (Amicon Inc., Beverly, Mass.) by centrifugation for 50 minutes at 2000 rpm to further clean-up the samples. 100 μL of filtrate was injected for analysis.

[3] = In vivo pharmacokinetics of 6-AAP and ara-A in mice (serum and brain)
Protocol: (§8) Analysis. […] All the solvents were of HPLC grade. Chromatography was performed on an Altech Hypersil ODS C18 (5 μm particle size, 4.5×150 mm, Altech Associates, Deerfield, Ill.).
(§9) In vivo pharmacokinetics: Female NIH Swiss mice (Harland Sprague-Dawley, Indianapolis, Ind.) weighing 24-28 g were used for the pharmacokinetic experiments.
(§10) At least three animals each were sacrificed at 0.08, 0.025, 0.5, 0.75, 1.0, 2.0, 3.0, 4.0, 5.0 and 6.0 hours after drug administration. Blood (serum) from the heart and whole-brain samples were collected. Serum samples were treated immediately and brain samples were frozen at −20° C. until analysis. To determine the nucleoside concentrations in the serum, a know amount of serum sample, 50 μL of the internal standard (AzdU, 5 μg/mL) and 1.0 mL of acetonitrile as a protein precipitant were added to polypropylene microcentrifuge tubes (1.7 mL). Tubes were mixed and centrifuged at 9,000 rpm for 10 minutes.
(§11) After homogenization, 1.8 mL of acetonitrile was added to tissue homogenates, samples were mixed and centrifuged at 9,000 rpm for 10 minutes. The resulting supernatant from the serum or the brain was transferred to a clean tube and dried under a stream of nitrogen gas at 22° C. The residue was reconstituted in 220 μL of mobile phase D and after centrifugation at 12,000 rpm for 40 min, 100-150 μL was injected for the HPLC analysis. […] After each assay, the column was equilibrated to initial conditions for 7 minutes.
(§12) The area under concentration (AUC) versus time profiles from time zero to the last measured concentration were determined by the linear trapezoidal rule and the AUC from the time of the last measured concentration to infinity was determined by dividing the last determined concentration by the least-squares elimination rate constant (λZ). […] The relative tissue exposure (re) of the compounds was calculated from AUCTissue/AUCserum.

in vitro = conditions: female, NIH Swiss, mouse
Protocol: as §5, §6, §7

adenosine deaminase = target: T1, adenosine deaminase (Bos taurus, UniProt P56658); assay: Adenosine deaminase study of 6-AAP; format: biochemical, calf; conditions: phosphate buffer pH 7.4, 25° C., up to three hours
T1 construct: Type II crude powder from calf intestinal mucosa; purchased Sigma chemical Co., St. Louis, Mo; Type II crude powder; host or cells: calf intestinal mucosa
T1 sequence (P56658 1-363): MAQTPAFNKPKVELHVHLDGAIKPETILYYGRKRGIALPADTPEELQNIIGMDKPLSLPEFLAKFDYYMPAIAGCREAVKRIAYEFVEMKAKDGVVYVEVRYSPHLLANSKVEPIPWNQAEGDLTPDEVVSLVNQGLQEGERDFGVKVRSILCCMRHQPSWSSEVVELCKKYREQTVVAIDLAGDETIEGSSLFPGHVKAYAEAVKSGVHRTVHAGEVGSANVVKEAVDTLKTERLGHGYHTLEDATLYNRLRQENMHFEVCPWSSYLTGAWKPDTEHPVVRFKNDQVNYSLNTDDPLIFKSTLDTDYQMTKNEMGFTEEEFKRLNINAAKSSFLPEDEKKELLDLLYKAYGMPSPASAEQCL
Protocol: (§4) The stability of 6-AAP at pH 2, 7 and 11 and towards adenosine deaminase hydrolysis was studied by UV spectroscopy.
Materials: Melting points were determined on a Mel-Temp II laboratory device and are uncorrected. The ^1H NMR spectra were recorded on a JEOL FX 90 Q FT spectrophotometer, with TMS as the internal standard; chemical shifts are reported in parts per million (δ), and the signals are quoted as s (singlet), d (doublet), t (triplet) or m (multiplet). UV spectra are recorded on a Beckman DU-650 spectrophotometer. TLC was performed on Uniplates (silica gel) purchased from Analtech Co. Elemental analysis was performed by Atlantic Microlab, Inc., Norcross, Ga. Ara-A and Adenosine deaminase (Type II crude powder from calf intestinal mucosa, 1-5 units/mg activity) was purchased from Sigma chemical Co., St. Louis, Mo. All other chemicals are of reagent grade. Methanol and acetonitrile, methyl sulfoxide were purchased from EM Science, Gibbstown, N.J.
Adenosine deaminase studies.

[4] = tested on: microsomal fraction of the human liver homogenate; assay: Azido reduction assay
Protocol: Briefly, incubation mixtures contained either 1.5 mg of human liver fraction protein (homogenate or supernatant fractions following centrifugation) or 1.5 mg microsomal protein, 5.0 mM MgCl2, 6.0 mM NADPH and 0.4 mg/mL of 6-AAP in 0.1 M phosphate buffer saline at pH 7.4 (final volume of 0.2 mL). The reaction was initiated by adding NADPH and conducted at 37° C. for 60 minutes under nitrogen. Reactions were terminated by heating at 100° C. for 30 seconds and the proteins were removed by centrifugation at 14,000 g for six minutes. Aliquots (100 μL) were then analyzed for nucleosides by HPLC. Control incubations were performed in the absence of protein.
Inhibition of azido reduction assay: Assays were performed using 1.5 mg microsomal protein as described above following either a 45 second exposure to carbon monoxide or a 5 minute pre-incubation with 1 mM metyrapone prior to the addition of NADPH.

in vivo [5] = conditions: female, NIH Swiss, mouse; for Kp: brain
Protocol: as §8, §9, §10, §11, §12

[6] = Stability of 6-AAP at pH 2, 7 and 11 by UV spectroscopy; format: physicochemical; conditions: 37° C.
Protocol: as §4
Stability studies of 6AAP. A kinetic study at varying pHs (pH 2, 7 and 11 at 37.1° C.) was performed on a UV spectrophotometer to investigate the stability of 6-AAP. […] At pH 2, the compound was stable.

[7] = target: T2, adenosine deaminase (type VII from calf intestinal mucosa) (Bos taurus, UniProt P56658); assay: Deamination by adenosine deaminase (2′-fluoronucleosides); format: biochemical; conditions: in vitro biotransformation
T2 construct: type VII from calf intestinal mucosa; purchased Sigma Chemical Co., St. Louis, Mo. type VII; host or cells: calf intestinal mucosa
T2 sequence (P56658 1-363): T1 sequence (P56658 1-363)
Protocol: Deamination of 2′-F-ara-ddA and FMAddA by adenosine deaminase. Samples (1.5 mL) of 2′-F-ara-ddA (80 μM) or FMAddA (50 μM) were prepared in 0.05 M isotonic phosphate buffer, pH 7.4, and placed into a shaking water bath at 37° C. The reaction was initiated by the addition of 15 μL of adenosine deaminase (type VII from calf intestinal mucosa, Sigma Chemical Co., St. Louis, Mo.). The final activity in the incubation media was 0.05 U/mL for 2′-F-ara-ddA and 1.0 U/mL for FMAddA. At specified time intervals, aliquots of 100 μL were withdrawn for the determination of 2′-F-ara-ddA and 2′-F-ara-ddI or FMAddA and 2′-F-ara-ddI concentrations.
Mobile phase flow rate was 2 mL/min.

[8] = In vitro stability in PBS, mouse serum, brain and liver homogenate (FAAddP, FMAddA); format: in vitro ADME; conditions: for half-life at 70 μM: mouse
Protocol: In vitro stability in serum, brain and liver homogenate. Liver and brain homogenate were prepared in a 1: 1 (g:mL) ratio with isotonic 0.05 M phosphate buffer, pH 7.4. FAAddP (70 μM) or FMAddA (50 μM) were added to the mouse serum, the brain homogenate or the liver homogenate and incubated in a shaker water bath at 37° C. Aliquots of 100 μL were removed at time zero and at selected times for up to 6 hours. Concentrations of the compounds were determined by HPLC.
as §1, §2, §3
Data analysis in vitro studies.

[9] = in vivo; cited from earlier work
[10] = female, NIH-Swiss, mouse, in vivo, iv, 55 mg/kg
[11] = female, NIH-Swiss, mouse, in vivo, po, 55 mg/kg
[12] = 6-AAP and coformycin incubated in mouse liver homogenate
[13] = 6-AAP incubated in mouse liver homogenate
[14] = after 6-AAP 100 mg/kg iv, brain
[15] = after 6-AAP 100 mg/kg iv, serum
[16] = after 6-AAP 100 mg/kg oral, brain
[17] = after 6-AAP 100 mg/kg oral, serum

Nc1ncnc2c1ncn2[C@@H]1O[C@H](CO)C[C@@H]1F [2′-F-ara-ddA, 2′-fluoro-2′,3′-dideoxyadenosine]
potency in protecting CD4+ATH8 cells from cytopathogenic effects of HIV-1 (HIV-1): as potent as the parent compounds
AUC0-τ (in vivo [1]; [10]): 3.9 µM·h
AUC (in vivo [1]; [10]): 3 µM·h
AUC (in vivo [1]; [11]): 0.8 µM·h
half-life (in vivo [1]; [11]): 1.74 h
AUC/Dose (in vivo [1]; mice, after FAAddP 55 mg/kg iv, brain): 0.02 μM · h/μmol/kg
AUC/Dose (in vivo [1]; mice, after FAAddP 55 mg/kg iv, serum): 0.04 μM · h/μmol/kg
AUC/Dose (in vivo [1]; mice, after FAAddP 55 mg/kg oral, serum): 0.005 μM · h/μmol/kg

[N-]=[N+]=Nc1ncnc2c1ncn2[C@@H]1O[C@H](CO)[C@@H](O)[C@@H]1O [Compound 6-AAP, 9-(β-D-arabinofuranosyl)-6-azidopurine]
Kel [2, 12]: 0.12 h⁻¹
T1/2 [2, 12]: 5.98 h
Kel ([2]; 6-AAP incubated in mouse brain homogenate): 0.01 h⁻¹
Kel [2, 13]: 0.14 h⁻¹
T1/2 [2, 13]: 4.66 h
Kel ([2]; 6-AAP incubated in mouse serum, calculated from 0 to 1 h): 0.25 h⁻¹
T1/2 ([2]; 6-AAP incubated in mouse serum, calculated from 0 to 1 h (slow initial decline)): 3.73 h
Maximum concentration in serum, intravenous ([3]; after 6-AAP 100 mg/kg iv): 465 ± 167 µg/mL
maximum concentration in the brain, intravenous ([3]; after 6-AAP 100 mg/kg iv): 5.92 ± 0.7 µg/g
time of maximum concentration in the brain, intravenous ([3]; after 6-AAP 100 mg/kg iv): 5 min
AUC [3, 14]: 4410 ± 370 ng·h/mL
t1/2 [3, 14]: 0.77 h
AUC [3, 15]: 201100 ± 17900 ng·h/mL
t1/2 [3, 15]: 0.55 h
Maximum concentration in serum, oral ([3]; after 6-AAP 100 mg/kg oral): 7.8 ± 2.51 µg/mL
maximum concentration in the brain, oral ([3]; after 6-AAP 100 mg/kg oral): 1.87 µg/g
time of maximum concentration in serum, oral ([3]; after 6-AAP 100 mg/kg oral): 60 min
time of maximum concentration in the brain, oral ([3]; after 6-AAP 100 mg/kg oral): 30 min
re (brain) ([3]; after 6-AAP 100 mg/kg oral, AUCTissue/AUCserum): 0.30
AUC [3, 16]: 4120 ± 370 ng·h/mL
t1/2 [3, 16]: 1.29 h
AUC [3, 17]: 13770 ± 1400 ng·h/mL
t1/2 [3, 17]: 0.58 h
fold difference in the AUC values after iv dosing of 20 and 100 mg/kg ([3]; serum): 5 fold
half-life at 100 μg/mL (in vitro; brain homogenate): 7.29 h
half-life at 100 μg/mL (in vitro; tissue homogenate): 4.9 h
hydrolysis by adenosine deaminase (adenosine deaminase): not hydrolysed
azido reduction (metabolites formed) [4]: converted to ara-A
Kp (in vivo [5]; intravenous, 100 mg/kg): 0.02
Kp (in vivo [5]; iv, 100 mg/kg): 0.02
Kp (in vivo [5]; oral, 100 mg/kg): 0.3
Kp (in vivo [5]; po, 100 mg/kg): 0.33
AUC (in vivo [5]; serum, iv, 20 mg/kg): 85600 ng·h/mL
AUC (in vivo [5]; serum, iv, 100 mg/kg): 201000 ± 17900 ng·h/mL
AUC (in vivo [5]; serum, po, 100 mg/kg): 13800 ± 1400 ng·h/mL
bioavailability (in vivo [5]; serum, po, 100 mg/kg): 6.8%
stability at pH 2 ([6]; UV at 287.5 nm, 2.75 hours): did not show any significant change; also recorded: stable
stability at pH 7 ([6]; UV at 287.5 nm, 2.75 hours): did not show any significant change; also recorded: stable
stability at pH 11 ([6]; UV spectroscopy): immediately changed its UV absorption maximum; also recorded: shifted from 287.5 nm to 222.5 nm immediately

[N-]=[N+]=Nc1ncnc2c1ncn2C1OC(CO)CC1F [FAAddP, 6-azido-2′,3′-dideoxy-2′-fluoro-β-D-arabinofuranosylpurine]
direct conversion to 2′-F-ara-ddI by adenosine deaminase [7]: negligible rate
stability in phosphate buffer saline ([8]; PBS pH 7.4, 37° C.): stable
half-life at 70 μM ([8]; brain homogenate, pH 7.4, mouse brain homogenate, read-out: half-life in brain homogenate (converted)): 6.1 h
half-life at 70 μM ([8]; liver homogenate, pH 7.4, mouse liver homogenate, biphasic, after initial 45 minutes, read-out: t1/2 in liver homogenate, subsequent slower phase (converted)): 7.74 h
half-life at 70 μM ([8]; liver homogenate, pH 7.4, mouse liver homogenate, biphasic, initial phase, read-out: t1/2 in liver homogenate, initial 45 minutes (converted)): 0.48 h
half-life at 70 μM ([8]; mouse serum, 37° C., read-out: degradation half-life in mouse serum (converted)): 2.41 h
azido reduction (metabolites formed) [4]: metabolized to 2′-F-ara-ddA and 2′-F-ara-ddI
intravenously administered dose of prodrug converted to 2′-F-ara-ddI (in vivo [1]; female, NIH-Swiss, mouse, in vivo): Approximately 30%
clearance (in vivo [1]; female, NIH-Swiss, mouse, in vivo, iv): 18.7 mL/min/kg
t½ (in vivo [1]; [10]): 0.22 h
half-life (in vivo [1]; [10]): 0.22 h
AUC/Dose (in vivo [1]; [11]): 0.19 μM · h/μmol/kg
bioavailability (in vivo [1]; [11]): 19%
AUC (in vivo [1]; [11]): 34.2 µM·h
half-life (in vivo [1]; [11]): 1.53 h

Nc1nc2c(ncn2COCCO)c(=O)[nH]1 [Acyclovir]
oral bioavailability [9]: 15-20%
